Assays:
[1] = target: T1, human DP2 receptor (Homo sapiens, UniProt Q9Y5Y4); experiment: DP2/CRTH2 radioligand binding assay using [3H]PGD2; conditions: hDP2 (CRTH2) binding assay
T1 construct: expressed in transfected cells
T1 sequence (Q9Y5Y4 1-395): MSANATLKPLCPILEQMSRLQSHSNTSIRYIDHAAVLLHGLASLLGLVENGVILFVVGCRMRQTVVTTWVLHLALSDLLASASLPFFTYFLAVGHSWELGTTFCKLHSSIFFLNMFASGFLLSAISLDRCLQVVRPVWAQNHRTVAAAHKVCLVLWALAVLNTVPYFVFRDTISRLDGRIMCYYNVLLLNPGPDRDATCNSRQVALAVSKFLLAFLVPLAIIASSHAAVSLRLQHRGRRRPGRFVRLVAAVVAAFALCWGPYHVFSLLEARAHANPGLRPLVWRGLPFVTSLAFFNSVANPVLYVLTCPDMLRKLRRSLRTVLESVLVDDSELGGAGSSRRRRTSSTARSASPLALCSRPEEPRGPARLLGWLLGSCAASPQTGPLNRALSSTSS
Outline: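 HEK293 membranes with stable recombinant human DP2, incubated with 1 nM [3H]PGD2 and compound 60 min at room temperature in pH 7.4 HEPES/MnCl2/EDTA buffer, with or without 0.2% human serum albumin.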

[2] = target: T2, recombinant human CRTH2 receptor (Homo sapiens, UniProt Q9Y5Y4); experiment: GTPγS binding assay; type: biochemical; conditions: +HSA; read-out: hDP2 GTPγS μM (+HSA)
T2 construct: expressed in transfected cells
T2 sequence (Q9Y5Y4 1-395): T1 sequence (Q9Y5Y4 1-395)
Outline: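 Membranes from CHO cells stably expressing recombinant receptor (~12.5 μg/well), incubated 60 min at 30° C with 0.05 nM [^35S]-GTPγS, 80 nM PGD2, 5 μM GDP in pH 7.4 Hepes buffer with 0.2% human serum albumin. Filter-bound radioactivity counted; specific binding = total minus binding without PGD2; IC50 from titration curves.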

[3] = target: T3, human DP1 receptor (Homo sapiens, UniProt Q13258); experiment: DP1 radioligand binding assay using [3H]BWA868C; conditions: hDP1 binding
T3 construct: tissue Biological Specialty Corporation; host or cells: human platelets, membranes
T3 sequence (Q13258 1-359): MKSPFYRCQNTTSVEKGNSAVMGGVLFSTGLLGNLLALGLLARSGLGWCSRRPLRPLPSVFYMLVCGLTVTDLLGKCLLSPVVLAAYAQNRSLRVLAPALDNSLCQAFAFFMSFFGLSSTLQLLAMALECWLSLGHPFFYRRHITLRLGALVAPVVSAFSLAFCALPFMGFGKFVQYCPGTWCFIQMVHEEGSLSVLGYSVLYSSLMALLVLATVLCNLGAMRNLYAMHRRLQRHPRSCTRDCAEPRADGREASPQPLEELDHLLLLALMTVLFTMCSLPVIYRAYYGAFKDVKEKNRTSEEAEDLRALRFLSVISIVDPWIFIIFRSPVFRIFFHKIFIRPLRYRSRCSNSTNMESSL
Outline: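 Human platelet membranes (20 μg protein/well) incubated 60 min at room temperature with 2 nM [3H]BWA868C in 50 mM Hepes, 10 mM MnCl2, 1 mM EDTA, ±0.2% human serum albumin, pH 7.4. Bound label measured after filtration; nonspecific binding defined with 10 μM BW A868C. IC50 from titration curves.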

| SMILES | IC50 [1] [nM] | IC50 [2] [µM] | IC50 [3] [nM] |
| --- | --- | --- | --- |
| C[C@@H]1[C@H](c2cc(F)cc(F)c2)OC(=O)N1Cc1cc(Br)ccc1Oc1cccc(CC(=O)O)c1 [Compound 1-51] | < 300 | < 0.3 | 300 to 1000 |
| C[C@@H]1[C@H](c2cc(C(F)(F)F)cc(C(F)(F)F)c2)OC(=O)N1Cc1cc(Br)ccc1Oc1cccc(CC(=O)O)c1 [Compound 1-52] | < 300 | > 1 | > 1000 |
| C[C@@H]1[C@H](c2ccccc2)OC(=O)N1Cc1cc(Br)ccc1Oc1ccc(Cl)c(CC(=O)O)c1 [Compound 1-53, {5-[4-Bromo-2-((4R,5S)-4-methyl-2-oxo-5-phenyl-oxazolidin-3-ylmethyl)-phenoxy]-2-chloro-phenyl}-acetic acid] | < 300 | > 1 | > 1000 |
| C[C@@H]1[C@H](c2ccccc2)OC(=O)N1Cc1cc(Br)ccc1Oc1ccc(C(F)(F)F)c(CC(=O)O)c1 [Compound 1-54, {5-[4-Bromo-2-((4R,5S)-4-methyl-2-oxo-5-phenyl-oxazolidin-3-ylmethyl)-phenoxy]-2-trifluoromethyl-phenyl}-acetic acid] | 300 to 1000 | > 1 | > 1000 |
| C[C@@H]1[C@H](c2ccccc2)OC(=O)N1Cc1cc(Br)ccc1Oc1cc(F)cc(CC(=O)O)c1 [Compound 1-55, {3-[4-Bromo-2-((4R,5S)-4-methyl-2-oxo-5-phenyl-oxazolidin-3-ylmethyl)-phenoxy]-5-fluoro-phenyl}-acetic acid] | < 300 | < 0.3 | > 1000 |
| C[C@@H]1[C@H](c2ccccc2)OC(=O)N1Cc1cc(Br)ccc1Oc1cc(Cl)cc(CC(=O)O)c1 [Compound 1-56, {3-[4-Bromo-2-((4R,5S)-4-methyl-2-oxo-5-phenyl-oxazolidin-3-ylmethyl)-phenoxy]-5-chloro-phenyl}-acetic acid] | < 300 | < 0.3 | > 1000 |
| C[C@@H]1[C@H](c2ccccc2)OC(=O)N1Cc1cc(Br)ccc1Oc1cc(CC(=O)O)cc(C(F)(F)F)c1 [Compound 1-57, {3-[4-Bromo-2-((4R,5S)-4-methyl-2-oxo-5-phenyl-oxazolidin-3-ylmethyl)-phenoxy]-5-trifluoromethyl-phenyl}-acetic acid] | < 300 | < 0.3 | > 1000 |
| C[C@@H]1[C@H](c2ccccc2)OC(=O)N1Cc1cc(Br)ccc1Oc1cc(CC(=O)O)ccc1Cl [Compound 1-58, {3-[4-Bromo-2-((4R,5S)-4-methyl-2-oxo-5-phenyl-oxazolidin-3-ylmethyl)-phenoxy]-4-chloro-phenyl}-acetic acid] | < 300 | 0.3 to 1 | > 1000 |
| COc1ccc(CC(=O)O)cc1Oc1ccc(Cl)cc1CN1C(=O)O[C@@H](c2ccccc2)[C@H]1C [Compound 1-59, {3-[4-Chloro-2-((4R,5S)-4-methyl-2-oxo-5-phenyl-oxazolidin-3-ylmethyl)-phenoxy]-4-methoxy-phenyl}-acetic acid] | < 300 | < 0.3 | > 1000 |
| COc1ccc(CC(=O)O)cc1Oc1ccc(Br)cc1CN1C(=O)O[C@@H](c2ccccc2)[C@H]1C [Compound 1-60, {3-[4-Bromo-2-((4R,5S)-4-methyl-2-oxo-5-phenyl-oxazolidin-3-ylmethyl)-phenoxy]-4-methoxy-phenyl}-acetic acid] | < 300 | < 0.3 | > 1000 |
| COc1ccc(CC(=O)O)cc1Oc1ccc(C(F)(F)F)cc1CN1C(=O)O[C@@H](c2ccccc2)[C@H]1C [Compound 1-61, {4-Methoxy-3-[2-((4R,5S)-4-methyl-2-oxo-5-phenyl-oxazolidin-3-ylmethyl)-4-trifluoromethyl-phenoxy]-phenyl}-acetic acid] | < 300 | 0.3 to 1 | > 1000 |
| COc1ccc(CC(=O)O)cc1Oc1ccc(Br)cc1CN1C(=O)O[C@@H](c2ccc(Cl)cc2)[C@H]1C [Compound 1-62] | < 300 | 0.3 to 1 | > 1000 |
| COc1ccc(CC(=O)O)cc1Oc1ccc(Br)cc1CN1C(=O)O[C@@H](c2cc(F)cc(F)c2)[C@H]1C [Compound 1-63, (3-{4-Bromo-2-[(4R,5S)-5-(3,5-difluoro-phenyl)-4-methyl-2-oxo-oxazolidin-3-ylmethyl]-phenoxy}-4-methoxy-phenyl)-acetic acid] | < 300 | < 0.3 | > 1000 |
| COc1ccc(CC(=O)O)cc1Oc1ccc(Br)cc1CN1C(=O)O[C@@H](c2cc(C(F)(F)F)cc(C(F)(F)F)c2)[C@H]1C [Compound 1-64, (3-{2-[(4R,5S)-5-(3,5-Bis-trifluoromethyl-phenyl)-4-methyl-2-oxo-oxazolidin-3-ylmethyl]-4-bromo-phenoxy}-4-methoxy-phenyl)-acetic acid] | 300 to 1000 | > 1 | > 1000 |
| CCNC(=O)c1ccc(Oc2cc(CC(=O)O)ccc2OC)c(CN2C(=O)O[C@@H](c3ccccc3)[C@H]2C)c1 [Compound 1-65, {3-[4-Ethylcarbamoyl-2-((4R,5S)-4-methyl-2-oxo-5-phenyl-oxazolidin-3-ylmethyl)-phenoxy]-4-methoxy-phenyl}-acetic acid] | < 300 | 0.3 to 1 | > 1000 |
| COc1ccc(CC(=O)O)cc1Oc1ccc(-c2cnn(C)c2)cc1CN1C(=O)O[C@@H](c2ccccc2)[C@H]1C [Compound 1-66, {4-Methoxy-3-[2-((4R,5S)-4-methyl-2-oxo-5-phenyl-oxazolidin-3-ylmethyl)-4-(1-methyl-1H-pyrazol-4-yl)-phenoxy]-phenyl}-acetic acid] | < 300 | < 0.3 | > 1000 |
| C[C@@H]1[C@H](c2ccccc2)OC(=O)N1Cc1cc(C(F)(F)F)ccc1Oc1cc(CC(=O)O)ccc1OCc1ccccc1 [Compound 1-67, {4-Benzyloxy-3-[2-((4R,5S)-4-methyl-2-oxo-5-phenyl-oxazolidin-3-ylmethyl)-4-trifluoromethyl-phenoxy]-phenyl}-acetic acid] | < 300 | 0.3 to 1 | > 1000 |
| Cc1nc(C)c(-c2ccc(Oc3cccc(CC(=O)O)c3)c(CN3C(=O)O[C@H](c4ccccc4)[C@@H]3C)c2)s1 [Compound 1-75, {3-[4-(2,4-Dimethyl-thiazol-5-yl)-2-((4S,5R)-4-methyl-2-oxo-5-phenyl-oxazolidin-3-ylmethyl)-phenoxy]-phenyl}-acetic acid] | < 300 | 0.3 to 1 | < 300 |
| Cc1noc(C)c1-c1ccc(Oc2cccc(CC(=O)O)c2)c(CN2C(=O)O[C@H](c3ccccc3)[C@@H]2C)c1 [Compound 1-76, {3-[4-(3,5-Dimethyl-isoxazol-4-yl)-2-((4S,5R)-4-methyl-2-oxo-5-phenyl-oxazolidin-3-ylmethyl)-phenoxy]-phenyl}-acetic acid] | < 300 | 0.3 to 1 | < 300 |
| C[C@H]1[C@@H](c2ccccc2)OC(=O)N1Cc1cc(C(F)(F)F)ccc1Oc1cccc(CC(=O)O)c1 [Compound 1-77, {3-[2-((4S,5R)-4-Methyl-2-oxo-5-phenyl-oxazolidin-3-ylmethyl)-4-trifluoromethyl-phenoxy]-phenyl}-acetic acid] | < 300 | 0.3 to 1 | < 300 |

Source: patent US8242145B2, “Cyclic diaryl ether compounds as antagonists of prostaglandin D2 receptors” (Panmira Pharmaceuticals, LLC, priority 2008, dated 2012)
